The results in this text go back to patent publication US7671066B2, “Derivatives of 1-phenyl-2-pyridynyl alkylene alcohols as phosphodiesterase inhibitors” (Chiesi Farmaceutici S.p.A., priority 2006, dated 2010).

For one data set, the target named is HPDE4. The data set is described as follows: Competition for high affinity HPDE4 ([H3]rolipram binding). The note with it: 50% inhibition of the binding of [H3]rolipram. Here is the method:
(§1) In the case of LPDE4, the IC50 is the molar concentration of the test compound producing 50% inhibition of cAMP disappearance, assessed as described in Cortijo J et al Br J Pharmacol 1993, 108: 562-568, while in the case of HPDE4, the IC50 is the molar concentration of the test compound producing 50% inhibition of the binding of [H^3]rolipram, assessed as described in Duplantier A J et al J Med Chem 1996; 39: 120-125.
(§2) The affinity toward LPDE4 and HPDE4 was assessed as previously described respectively in Cortijo J et al Br J Pharmacol 1993, 108: 562-568 and Duplantier A J et al J Med Chem 1996; 39: 120-125.
(§3) The concentration of the test compounds ranged between 10^−12 M and 10^−5 M.
(§4) In the case of LPDE4, the IC50 is the molar concentration of the test compound producing 50% inhibition of cAMP disappearance, while in the case of HPDE4, the IC50 is the molar concentration of the test compound producing 50% inhibition of the binding of [H^3] rolipram.

Another data set relates to LPDE4. Nature of the data set: Inhibition of low affinity LPDE4 (cAMP disappearance). The data set is classed as biochemical. The conditions noted are these: for IC50: 50% inhibition of cAMP disappearance; for HPDE4/LPDE4: ratio of IC50 values. As for the experimental part: as §1, §2, §3, §4
Data set [1] relates to LPS-induced TNF-α release in peripheral blood mononuclear cells (PBMCs). Nature of the data set: PDE4 inhibitory activity in the PBMCs assay (LPS-induced TNF-α release). The format is cell-based. The conditions noted are these: PBMC; human PBMCs, LPS 3 ng/ml, 18 h, TNF-α by ELISA; mean (95% confidence limits). As for the experimental part: The assay, which is based on the known inhibitory activity exerted by PDE4 inhibitors on the lipopolyshaccarides (LPS)-induced tumour necrosis factor-alpha (TNF-α) release in peripheral blood mononuclear cells (PBMCs), was performed according to a method previously described (Hatzelmann A et al J. Pharmacol. Exp. Ther. 2001; 297:267-279; Draheim R et al J. Pharmacol. Exp. Ther. 2004; 308:555-563.
Cryopreserved human PBMCs, (100 μl/well) were incubated in 96-well plates (10^5 cells/well), for 30 min, in the presence or absence (50 microl) of the test compounds whose concentrations ranged from 10^−12 M to 10^−6 M. Subsequently, LPS (3 ng/ml) was added.
After 18 h incubation at 37° C. in a humidified incubator under an atmosphere of 95% air and 5% CO2, culture medium was collected and TNF-α measured by ELISA.
The results, expressed as mean ±95% confidence limits of the molar concentration of the test compound producing 50% inhibition of LPS-induced TNF-α release (IC50) are reported in Table 1.
The effects of the tested compounds were calculated as percentage of inhibition of TNF-α release, assuming LPS-induced TNF-α production in the absence of inhibitor compound as 100% and basal TNF-α production of PBMCs in the absence of LPS as 0%.

The test system of another data set is PDE4 enzyme. Nature of the data set: PDE4 inhibitory activity in the cell free assay (cAMP disappearance, U937 cell supernatant). The data set is classed as biochemical, human. The note with it: 1.6 μM cAMP, 30 min at 30° C., mean (95% confidence limits). As for the experimental part: The U937 human monocytic cell line was used as source of PDE4 enzyme. Cells were cultured, harvested and supernatant fraction prepared essentially as described in Torphy T J et al J. Pharmacol. Exp. Ther. 1992; 263:1195-1205.
PDE4 activity was determined in cells supernatants by assaying cAMP disappearance from the incubation mixtures. 50 μl of cell supernatant were incubated at 30° C. for 30 minutes in a final volume of 200 μl in the presence of 1.6 μM cAMP with or without the test compound (50 μl).
The concentration of the test compounds ranged between 10^−12 M and 10^−6 M. Reactions were stopped by heat inactivation (2.5 minutes at 100° C.) and residual cAMP was measured using an electro-chemiluminescence (ECL)-based immunoassay.
The results, expressed as mean ±95% confidence limits of the molar concentration of the test compound producing 50% inhibition of cAMP disappearance (IC50) are reported in Table 1 of Example 38.
Percentage of inhibition of PDE4 activity was calculated, assuming cAMP disappearance in the absence of inhibitors as 100% and cAMP disappearance in heat inactivated samples as 0%.

The test system of data set [2] is bronchoalveolar lavage neutrophils. The data set is described as follows: LPS-induced acute pulmonary inflammation in rats (animal model of COPD), intratracheal administration. The format is in vivo. Here is the method: The anti-inflammatory activity of a representative compound of the invention, e.g. CHF 5480 was evaluated after intratracheal (i.t.) administration according to the method described in Belvisi M G J Pharmacol Exp Ther 2005, 314: 568-574.
CHF 5480 was tested by i.t. instillation 24 h and 1 h before exposure to LPS.

A short description of data set [3]: Pulmonary and plasma levels after intratracheal administration. The data set is classed as in vivo, rats.

On HPDE4, `COc1ccc(C(=O)Cc2c(Cl)cncc2Cl)cc1OC1CCCC1` [CHF 5400, 1-(3-cyclopentyloxy-4-methoxy-phenyl)-2-(3,5-dichloro-pyridin-4-yl)-ethanone, reference compound] came in with an IC50 of 0.61 nM. In addition, in the data set with LPDE4, the IC50 worked out at 0.94 nM and the HPDE4/LPDE4 stood at 1.5.
Regarding `COc1ccc(C(=O)O/C(=C\c2c(Cl)cncc2Cl)c2ccc(OC)c(OC3CCCC3)c2)cc1OC1CCCC1` [CHF 5408, 3-Cyclopentyloxy-4-methoxy-benzoic acid, (Z)-1-(3-cyclopentyloxy-4-methoxy-phenyl)-2-(3,5-dichloro-pyridin-4-yl)vinyl ester], the IC50 amounted to 0.9 nM in data set [1], 1.3 nM in the data set with PDE4 enzyme, 0.74 nM at HPDE4 and 42.6 nM in the data set with LPDE4. Further, the HPDE4/LPDE4 in the data set with LPDE4 is 57.6.
As for `COc1ccc(/C(=C/c2c(Cl)cncc2Cl)OC(=O)c2ccccc2)cc1OC` [CHF 5415, Benzoic acid, (Z)-2-(3,5-dichloro-pyridin-4-yl)-1-(3,4-dimethoxy-phenyl)vinyl ester], the IC50 (in data set [1]; in the data set on PDE4 enzyme) was 5.7 nM each time.
As for `COc1ccc(C(=O)O/C(=C\c2c(Cl)cncc2Cl)c2ccc(OC)c(OC)c2)cc1` [CHF 5429, 4-Methoxy-benzoic acid, (Z)-2-(3,5-dichloro-pyridin-4-yl)-1-(3,4-dimethoxy-phenyl)vinyl ester], the values for the IC50 (in data set [1]; in the data set with PDE4 enzyme) were 5.6 nM and 1 nM, respectively.
The corresponding values for `COc1ccc(C(=O)O/C(=C\c2c(Cl)cncc2Cl)c2ccc(OC(F)F)c(OCC3CC3)c2)cc1OC` [CHF 5472, 3,4-Dimethoxy-benzoic acid, (Z)-1-(3-cyclopropylmethoxy-4-difluoromethoxy-phenyl)-2-(3,5-dichloro-pyridin-4-yl)vinyl ester] are 5.4 nM and 4 nM.
Regarding `COc1ccc(/C(=C/c2c(Cl)cncc2Cl)OC(=O)[C@@H](C)c2ccc(CC(C)C)cc2)cc1OC` [CHF 5480, 2-(S)-(4-Isobutyl-phenyl)-propionic acid, (Z)-2-(3,5-dichloro-pyridin-4-yl)-1-(3,4-dimethoxy-phenyl)vinyl ester], the IC50 in data set [1] came to 26 nM; with PDE4 enzyme, 17.9 nM. Moreover, the “inhibition of bronchoalveolar lavage neutrophils” value in data set [2] (i.t. instillation 24 h and 1 h before LPS, doses 0.001 to 10 μmoles/kg) is “significant and dose-dependent inhibition”. Besides, the “reduction of neutrophilia (maximal effect)” value in data set [2] (i.t., 1 μmole/kg dose) was 60%. The levels in plasma entry in data set [3] (i.t. administration, plasma) is “no detectable levels”. For the same compound, the MRT in data set [3] (rat, other: intratracheal (i.t.) instillation, lung, read-out: mean residence time in the lungs) was found to be 15.3 h.
Consider `COc1ccc(/C(=C/c2c(Cl)cncc2Cl)OC(=O)c2ccc([N+](=O)[O-])cc2)cc1OC` [CHF 5513, 4-Nitro-benzoic acid, (Z)-2-(3,5-dichloro-pyridin-4-yl)-1-(3,4-dimethoxy-phenyl)vinyl ester], for which the IC50 in data set [1] was determined as 8.5 nM; with PDE4 enzyme it was 0.5 nM.
In the same order, the values of `O=C(O/C(=C\c1c(Cl)cncc1Cl)c1ccc(OC(F)F)c(OCC2CC2)c1)c1ccc(OC(F)F)c(OCC2CC2)c1` [CHF 5514, 3-Cyclopropylmethoxy-4-difluoromethoxy-benzoic acid, (Z)-1-(3-cyclopropylmethoxy-4-difluoromethoxy-phenyl)-2-(3,5-dichloro-pyridin-4-yl)vinyl ester] are 12.5 nM and 1.2 nM.
In the same order, the values of `COc1ccc(/C(=C/c2c(Cl)cncc2Cl)OC(=O)c2ccc(NS(C)(=O)=O)cc2)cc1OC` [CHF 5526, 4-Methanesulfonylamino-benzoic acid (Z)-2-(3,5-dichloro-pyridin-4-yl)-1-(3,4-dimethoxy-phenyl)vinyl ester] are 3.77 nM and 0.7 nM.
On to `COc1ccc(C(=O)O/C(=C\c2c(Cl)cncc2Cl)c2ccc(OC)c(OC3CCCC3)c2)cc1OCc1ccccc1` [CHF 5528, 3-Benzyloxy-4-methoxy-benzoic acid, (Z)-1-(3-cyclopentyloxy-4-methoxy-phenyl)-2-(3,5-dichloro-pyridin-4-yl)vinyl ester], for which the IC50 in data set [1] was 21.8 nM; in the data set on PDE4 enzyme, 7.3 nM.
`COc1ccc(/C(=C/c2c(Cl)cncc2Cl)OC(=O)c2ccc(N)cc2)cc1OC` [CHF 5530, 4-Amino-benzoic acid, (Z)-2-(3,5-dichloro-pyridin-4-yl)-1-(3,4-dimethoxy-phenyl)vinyl ester]: the IC50 is 5.4 nM in data set [1] and 1.7 nM with PDE4 enzyme.
In the same order, the values of `COc1ccc(C(=O)O/C(=C\c2c(Cl)cncc2Cl)c2ccc(OC)c(OC3CCCC3)c2)cc1OC` [CHF 5532, 3,4-Dimethoxy-benzoic acid, (Z)-1-(3-cyclopentyloxy-4-methoxy-phenyl)-2-(3,5-dichloro-pyridin-4-yl)vinyl ester] are 2.2 nM and 12.6 nM.
In the same order, the values of `COc1ccc(/C(=C/c2c(Cl)cncc2Cl)OC(=O)c2ccc(NS(=O)(=O)c3ccc(F)cc3)cc2)cc1OC` [CHF 5533, 4-(4-Fluoro-benzenesulfonylamino)-benzoic acid, (Z)-2-(3,5-dichloro-pyridin-4-yl)-1-(3,4-dimethoxy-phenyl)vinyl ester] are 3.1 nM and 0.37 nM.
On to `COc1ccc(/C(=C/c2c(Cl)cncc2Cl)OC(=O)c2ccc(NS(=O)(=O)c3ccc(C)cc3)cc2)cc1OC` [CHF 5537, 4-(Toluene-4-sulfonylamino)-benzoic acid, (Z)-2-(3,5-dichloro-pyridin-4-yl)-1-(3,4-dimethoxy-phenyl)vinyl ester], for which the IC50 in data set [1] worked out at 6.3 nM; in the data set with PDE4 enzyme it was 0.35 nM.
In data set [1], `COc1ccc(C(=O)O/C(=C\c2c(Cl)cncc2Cl)c2ccc(OC)c(OCC3CC3)c2)cc1OCC1CC1` [CHF 5546, 3-Cyclopropylmethoxy-4-methoxy-benzoic acid, (Z)-1-(3-cyclopropylmethoxy-4-methoxy-phenyl)-2-(3,5-dichloro-pyridin-4-yl)vinyl ester] had a half-inhibitory concentration (IC50) of 1 nM.
On to `COc1ccc(/C(=C/c2c(Cl)cncc2Cl)OC(=O)c2ccc(OC(F)F)c(OCC3CC3)c2)cc1OC` [CHF 5555, 3-Cyclopropylmethoxy-4-difluoromethoxy-benzoic acid, (Z)-2-(3,5-dichloro-pyridin-4-yl)-1-(3,4-dimethoxy-phenyl)vinyl ester], for which the IC50 in data set [1] stood at 2 nM; with PDE4 enzyme it was 6.1 nM.
In the same order, the values of `COc1ccc(/C(=C/c2c(Cl)cncc2Cl)OC(=O)C2(c3ccc(C)cc3)CC2)cc1OC` [CHF 5557, 1-p-Tolyl-cyclopropanecarboxylic acid, (Z)-2-(3,5-dichloro-pyridin-4-yl)-1-(3,4-dimethoxy-phenyl)vinyl ester] are 10.1 nM and 13.8 nM.
